Laboratory results from patent US4092426A, “Novel aminobenzoic acid derivatives, process for preparing the same and pharmaceutical composition containing the same” (Chugai Seiyaku Kabushiki Kaisha, priority 1975, dated 1978).
Where a name gives a salt, the structure may show the parent alone.

Tests used:
[1] = test system: plaque forming cells (PFC) in the spleen; assay: Activity for Recovering Immune Depletion by cortisone: plaque forming cells (PFC) in the spleen; type: in vivo, IV CS strain male mice; conditions: 10 mg/kg oral, cortisone-treated
Experimental: (§1) As test animals, IV CS strain male mice (5 week old) were used by dividing them into groups of 5 members each. Each mouse was intraperitoneally administered with cortisone in a dose of 60 mg/kg once a day for 5 days. Three days after the first administration, the sensitization with an antigen, sheep red blood cell (SRBC), was made by injecting the antigen into the mouse through the tail vein. Each mouse was orally administered with the test compound, disodium salt of N-2'-carboxyphenyl-4-chloroanthranilic acid, a day after the sensitization. Five days after the sensitization, the number of plaque forming cells (PFC) in the spleen was measured in a usual manner.

[2] = test system: antibody in blood; assay: Titer of antibody in blood of cortisone-treated mice (hemolysing method); type: in vivo, IV CS strain male mice
Experimental: as §1
* Titer of antibody in blood is indicated by a dilution degree of 50%

[3] = test system: Pseudomonas aeruginosa Pa-II; assay: Activity for Protecting from Infection by Bucillus Pyocyaneous; type: in vivo; conditions: oral 2 mg/head; for Survival Terms: individual animals
Source text: As test animals, ddY strain male mice (5 week old) which were divided into groups of 7 members each were used. Each mouse was intraperitoneally inoculated with bucillus pyocyaneous, Pseudomonas aeruginosa Pa-II.

[4] = test system: Salmonella enteritidis TO-1; assay: Activity for Protecting from Infection by Salmonellae, with streptomycine; type: in vivo; conditions: mouse; oral 2 mg/head; with streptomycine 0.5 mg/head s.c.
Experimental: As test animals, ddY strain male mice (5 week old) which were divided into groups of 7 members each were used. Each mouse was intraperitoneally inoculated with 10^5 Salmonella enteritidis TO-1, and 3 hours after the inoculation, was subcutaneously administered one shot of streptomycine in a dose of 0.5 mg/head.

[5] = test system: triglyceride in liver; assay: Action for decreasing triglyceride in liver (ethanol-induced); type: in vivo, Sprague Dawley strain female rats; conditions: rat, oral 100 mg/kg, 30 min before ethanol 6 g/kg; 24 h; 100 mg/kg
Experimental: Sprague Dawley strain female rats each weighing 170 - 200 g which had been fasted for 15 hours were divided into groups of 4 rats each. The rats were orally administered a different test compound in a dose of 100 mg/kg, and 30 minutes after the administration, orally administered ethanol in a dose of 6 g/kg. Twenty-four hours after the administration of ethanol, the liver of each rat was taken out and neutral lipid level in the liver was measured in a conventional manner to calculate the ratio of preventing an increase in triglyceride content in the liver. For a control group, ethanol and, for the other control group, a glucose aqueous solution equivalent in calorific value to the same amount of ethanol were used and the same manner as those of test groups, and for the positive control group, commercially available 2-mercaptopropionylglycine was used instead of the test compound.
*The % prevention was calculated by the following

[6] = test system: lymphocites; assay: Activity for Promoting Blastogenesis of Lymphocites (in vivo); parameters: species or system Wistar-Imamichi strain male rats
Experimental: (§2) In this Experiment, influence of the test compound disodium salt of N-2'-carboxyphenyl-4-chloroanthranilic acid on blastogenesis of lymphocites was studied by the use of spleen cells and lymphonoid cells of mouse and rat. For in vitro test, C3 H/He strain male mice and for in vivo Wistar-Imamichi strain male rats were used respectively. Concanavallin A manufactured by Sigma was used as the blastogenetic factor in the in vitro test and lymphocites were cultured by the use of medium of RPMI 1640 manufactured by Grand Island Biological Co. The cultivation of the lymphocites was carried out in the medium at 37° C in a 5% carbon dioxide atmosphere for about 48 hours and after the addition of 0.5 μCi/ml of ^3 H-thymidine, the cells in the medium were incubated for 16 hours and then the lymphocites were separated. The radioactivity of the separated cells was measured by a scintillation counter and the value was evaluated as an indicator of blastogenetic degree. For the in vivo test, the in vitro test was repeated except that each rat was orally administered with the test compound in a dose of 5 or 50 mg/kg. In this case, the rats administered with the test compound were divided into groups of 3 members each and the cells to be cultivated from the rats in each group were placed under the same cultivation conditions. The results of the experiments are shown in FIG. 4 (in vitro) and FIG. 5 (in vivo), respectively.

[7] = test system: Pseudomonas aeruginosa Pa-II; assay: Activity for Protecting from Infection by Bucillus Pyocyaneous, with carbenicillin; type: in vivo; conditions: mouse; with carbenicillin
Experimental: As test animals, ddY strain male mice (5 week old) which were divided into groups of 9 members each were used. Each mouse was intraperitoneally administered with 10^6 Pseudomonas aeruginosa Pa-II, and 1.5 hours after the administeration, subcutaneously administered one shot of carbenicillin, an antibiotic. The test compound, disodium salt of N-2'-carboxyphenyl-4-chloroanthranilic acid, was orally administered once a day in a dose of 2 mg/head one and two days before the inoculation, respectively. The activity of the test compound was evaluated by observing the test animals for 54 hours after the inoculation.

[8] = test system: Adjuvant arthritis; assay: Activity for Treating Adjuvant Arthritis (hind paw volume); type: in vivo, Sprague Dawley strain male rats
Experimental: Sprague Dawley strain male rats (eight week old) were used as test animals. […] Seventeen days after the sensitization, degree of swelling of hind pawls of each rat was determined by measuring the volume of its hind paws and the rats were divided into groups of 10 members each so that average degree of swelling for each of the groups was approximately equal. Each group of rats was orally administered with the test compound, disodium salt of N-2'-carboxyphenyl-4-chloroanthranilic acid, in a dose as shown in Table 5 once a day for a week starting on the seventeenth day after the sensitization. Degree of swelling of hind paws of each rat was measured every second or third day after the completion of the administration of the test compound till the 31st day from the sensitization. The reduction in volume of the hind paws was used as an index to evaluate the pharmacological activity.
The results of the statistical test which was made on the values obtained on the 24th and 31st days from the sensitization are shown in Table 5.

[9] = test system: lymphocites; assay: Activity for Promoting Blastogenesis of Lymphocites (in vitro); type: cell-based, C3 H/He strain male mice; conditions: 10^-1 to 10^-2 μg/ml
Experimental: as §2, with “The results of the experiments are shown in FIG. 4 (in vitro) and FIG. 5 (in vivo), respectively.” left out

With `O=C(O)c1ccccc1Nc1cc(Cl)ccc1C(=O)O` [disodium salt of N-2'-carboxyphenyl-4-chloroanthranilic acid] the “number of PFC” value [1] was “significantly increased”, the “Titer of Antibody (dilution degree of 50% hemolysis)” value ([2]; Cortisone + Test Compound (10 mg/kg)) was 10^10 and the “Titer of Antibody (dilution degree of 50% hemolysis)” value ([2]; Cortisone + Test Compound (50 mg/kg)) was 10^6. For the same compound, the “Survival Terms” value ([3]; 2 × 10^4 bacteria/head, mouse, S: survival at 54 hours) was “S,S,S,S,S and S,S”, the “Dead Animal/Test Animal” value ([3]; 2 × 10^4 bacteria/head, control 1/7) was 0/7 and the “activity for protecting from the bacterial infection” value ([3]; 2 × 10^5 bacteria per head) was “activity of the test compound for protecting from the bacterial infection was observed”. The “Survival Terms” value ([3]; 2 × 10^5 bacteria/head, mouse, S: survival at 54 hours) was “S,S”, the “Dead Animal/Test Animal” value ([3]; 2 × 10^5 bacteria/head, control 6/7) was 1/7 and the “Survival Terms” value ([3]; 2 × 10^6 bacteria/head, mouse) was 29,29 hours. For the same compound, the “Dead Animal/Test Animal” value ([3]; 2 × 10^6 bacteria/head, control 7/7) was 7/7, the “effect on bacillary toxin” value ([3]; mouse) was “acts to lower the bacillary toxin” and the “bacteriocidal activity of the antibiotic with the test compound” value [4] was “improved bacteriocidal activity”. The “% Prevention (of increase in triglyceride content in the liver)” value [5] was 63.6%, the “degree of promotion (S.I. value) of blastogenesis” value ([6]; rat, oral 5 or 50 mg/kg, one day before Concanavallin A) was “about twice as large as that of the control” and the “activity of Concanavallin A” value ([6]; rat, oral 5 or 50 mg/kg, one day before Concanavallin A, vs control) was “increased to about double”. The “improvement of the activity of Concanavallin A” value ([6]; rats or mice, four days before Concanavallin A) was “the improvement of the activity was observed”, the “bacteriocidal activity of the antibiotic with the test compound” value [7] was “improved bacteriocidal activity” and the “volume of hind paws” value ([8]; 0.1 mg/kg oral, day 24 after the sensitization) was 3.524 ± 0.170 mL. The “volume of hind paws” value ([8]; 0.1 mg/kg oral, day 31 after the sensitization) was 3.762 ± 0.216 mL, the “volume of hind paws” value ([8]; 1 mg/kg oral, day 24 after the sensitization) was 3.214 ± 0.161 mL and the “volume of hind paws” value ([8]; 1 mg/kg oral, day 31 after the sensitization) was 3.289 ± 0.223 mL. For the same compound, the “volume of hind paws” value ([8]; 5 mg/kg oral, day 24 after the sensitization, ** P<0.01) was 3.175 ± 0.100 mL, the “volume of hind paws” value ([8]; 5 mg/kg oral, day 31 after the sensitization, * P<0.05) was 3.102 ± 0.141 mL and the “volume of hind paws” value ([8]; 10 mg/kg oral, day 24 after the sensitization, ** P<0.01) was 3.027 ± 0.126 mL. For the same compound, the “volume of hind paws” value ([8]; 10 mg/kg oral, day 31 after the sensitization, * P<0.05) was 3.121 ± 0.176 mL, the “volume of hind paws” value ([8]; 100 mg/kg oral, day 24 after the sensitization) was 3.350 ± 0.168 mL and the “volume of hind paws” value ([8]; 100 mg/kg oral, day 31 after the sensitization) was 3.482 ± 0.170 mL. For the same compound, the “activity for treating adjuvant arthritis of rat” value ([8]; 5 or 10 mg/kg oral) was “significant level of activity” and the “activity of Concanavallin A (blastogenesis of lymphocites)” value [9] was “improved the activity of Concanavallin A”.
